Measured values: ChEMBL document CHEMBL1201862, “PubChem BioAssay data set” (2004)
One block for each compound: values may come before it. The source made the active and inactive calls.

Assays:
Phospholipase A2 = Phospholipase A2 (Homo sapiens, UniProt P04054); type: functional;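 note: confirmatory dose-response counterscreen on phospholipase A2, testing hits that came from an ultra-high-throughput screen for ATG4B inhibitors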
Cysteine protease ATG4B = molecular target: T1, Cysteine protease ATG4B (Homo sapiens, UniProt Q9Y4P1); type: functional;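 note: Fluorescence-based dose-response confirmation assay measuring inhibition of ATG4B activity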
T1 sequence (Q9Y4P1 whole entry): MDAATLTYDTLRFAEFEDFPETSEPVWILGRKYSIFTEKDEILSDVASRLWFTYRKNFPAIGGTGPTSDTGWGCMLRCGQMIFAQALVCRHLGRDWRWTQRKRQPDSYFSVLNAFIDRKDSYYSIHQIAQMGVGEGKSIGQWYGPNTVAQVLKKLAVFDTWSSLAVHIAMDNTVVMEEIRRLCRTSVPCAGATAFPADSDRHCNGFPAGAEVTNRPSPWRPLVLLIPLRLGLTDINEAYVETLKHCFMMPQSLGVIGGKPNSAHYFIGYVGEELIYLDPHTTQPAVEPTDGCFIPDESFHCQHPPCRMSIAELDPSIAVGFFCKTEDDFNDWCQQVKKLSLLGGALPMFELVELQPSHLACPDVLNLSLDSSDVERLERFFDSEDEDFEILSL

[1] = inhibitors of HIV Env-driven cell fusion, dose response, cherry-pick (AID 652057); type: functional, cell-based
[2] = inhibitors of clade B AD8 Env fusion, dose response, cell-based, cherry-pick (AID 652062); type: functional;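 note: luciferase signal from cell-cell fusion driven by HIV-1 clade B AD8 Env; potency is for inhibitors of fusion seen as a drop in luminescence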
[3] = ZM109 Env clade C HIV-1 fusion inhibitors, dose response, HeLa effector, CEM target cells, luciferase, cherry-pick (AID 652058); type: functional, cell-based
[4] = off-target signal loss in HeLa-CEM21 co-culture – HeLa F-luc CTL cells, cherry-picked, counter-screen for HIV-1 Env fusion inhibitor project, dose response (AID 652040); type: functional, cell-based;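 note: potency for signal decrease marking cytotoxic or nonspecific inhibition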
[5] = Luminescence Cell-Based Dose Confirmation HTS to Identify Inhibitors of Platelet Dense Granule Release. [Related pubchem assays: 1663 (Primary HTS), 1678 (Summary of Project)]; type: functional
Caspase-6 = molecular target: T2, Caspase-6 (Homo sapiens, UniProt P55212); experiment: human caspase-6 inhibitors, dose response, biochemical, VEID-R110 fluorescence, cherry-pick (AID 720632)
T2 sequence (P55212 whole entry): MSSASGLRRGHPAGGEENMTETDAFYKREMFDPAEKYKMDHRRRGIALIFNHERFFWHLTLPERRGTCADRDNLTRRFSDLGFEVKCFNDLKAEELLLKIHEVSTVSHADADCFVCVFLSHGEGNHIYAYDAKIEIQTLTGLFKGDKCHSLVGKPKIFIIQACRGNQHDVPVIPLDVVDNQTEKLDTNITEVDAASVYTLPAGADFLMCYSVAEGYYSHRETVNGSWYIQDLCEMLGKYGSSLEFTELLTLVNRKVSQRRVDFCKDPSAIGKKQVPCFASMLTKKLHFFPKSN

[6] = molecular target: Luciferin 4-monooxygenase (Photinus pyralis, UniProt P08659); experiment: firefly luciferase enzyme inhibitors, dose response, biochemical, luminescence (AID 1891)
[7] = molecular target: T3, Rac GTPase-activating protein 1 (Homo sapiens, UniProt Q9H0H5); experiment: MgcRacGAP GTPase-activating activity inhibitors, confirmation, biochemical, ADP Hunter fluorescence, primary and confirmatory (AID 624330); type: functional
T3 sequence (Q9H0H5 whole entry): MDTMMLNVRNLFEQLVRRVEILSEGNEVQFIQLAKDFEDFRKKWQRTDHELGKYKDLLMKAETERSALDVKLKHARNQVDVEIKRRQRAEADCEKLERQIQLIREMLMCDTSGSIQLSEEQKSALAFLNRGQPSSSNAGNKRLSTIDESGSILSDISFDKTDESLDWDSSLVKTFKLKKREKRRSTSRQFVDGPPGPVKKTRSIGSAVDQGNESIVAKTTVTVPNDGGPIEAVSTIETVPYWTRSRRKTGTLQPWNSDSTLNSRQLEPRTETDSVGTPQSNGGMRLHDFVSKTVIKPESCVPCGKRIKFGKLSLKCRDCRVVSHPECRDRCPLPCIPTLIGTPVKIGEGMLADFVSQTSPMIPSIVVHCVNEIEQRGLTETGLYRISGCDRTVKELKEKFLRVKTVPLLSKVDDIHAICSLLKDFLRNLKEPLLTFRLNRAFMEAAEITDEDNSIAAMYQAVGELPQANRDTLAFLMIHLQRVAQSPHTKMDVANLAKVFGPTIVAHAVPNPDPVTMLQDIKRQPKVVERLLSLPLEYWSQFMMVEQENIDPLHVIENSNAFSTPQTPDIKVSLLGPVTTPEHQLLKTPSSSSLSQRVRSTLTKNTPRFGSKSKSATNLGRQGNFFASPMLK

[8] = HeLa cell cytotoxicity, dose response, cytotoxicity control for MgcRacGAP inhibitor project (AID 624300); type: functional
[9] = molecular target: T4, Mitochondrial peptide methionine sulfoxide reductase (Bos taurus, UniProt P54149); experiment: Absorbance-based biochemical high throughput dose response assay for activators of Methionine sulfoxide reductase A (MsrA).; type: functional
T4 sequence (P54149 whole entry): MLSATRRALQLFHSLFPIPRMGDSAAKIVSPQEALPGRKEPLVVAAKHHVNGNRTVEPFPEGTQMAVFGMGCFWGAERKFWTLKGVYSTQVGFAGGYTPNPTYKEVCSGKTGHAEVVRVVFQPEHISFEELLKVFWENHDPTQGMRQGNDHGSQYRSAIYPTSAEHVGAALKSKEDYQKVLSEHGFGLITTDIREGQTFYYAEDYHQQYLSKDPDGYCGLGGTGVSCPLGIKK

[10] = molecular target: T5, Low molecular weight phosphotyrosine protein phosphatase (Homo sapiens, UniProt P24666); type: functional; settings: read-out: IC50_Mean;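 note: Dose-response confirmation assay measuring inhibition of LMPTP enzyme activity by fluorescence intensity read-out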
T5 sequence (P24666 whole entry): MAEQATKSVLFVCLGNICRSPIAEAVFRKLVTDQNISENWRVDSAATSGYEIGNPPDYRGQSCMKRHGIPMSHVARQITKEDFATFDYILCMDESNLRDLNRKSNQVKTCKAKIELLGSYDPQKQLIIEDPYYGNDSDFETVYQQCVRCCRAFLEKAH

[11] = molecular target: Voltage-dependent T-type calcium channel subunit alpha-1H (Homo sapiens, UniProt O95180); type: functional;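 note: channel activity triggered by adding a high calcium stimulation buffer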
Sequence of Voltage-dependent T-type calcium channel subunit alpha-1H (O95180 whole entry, the tested form may be a part): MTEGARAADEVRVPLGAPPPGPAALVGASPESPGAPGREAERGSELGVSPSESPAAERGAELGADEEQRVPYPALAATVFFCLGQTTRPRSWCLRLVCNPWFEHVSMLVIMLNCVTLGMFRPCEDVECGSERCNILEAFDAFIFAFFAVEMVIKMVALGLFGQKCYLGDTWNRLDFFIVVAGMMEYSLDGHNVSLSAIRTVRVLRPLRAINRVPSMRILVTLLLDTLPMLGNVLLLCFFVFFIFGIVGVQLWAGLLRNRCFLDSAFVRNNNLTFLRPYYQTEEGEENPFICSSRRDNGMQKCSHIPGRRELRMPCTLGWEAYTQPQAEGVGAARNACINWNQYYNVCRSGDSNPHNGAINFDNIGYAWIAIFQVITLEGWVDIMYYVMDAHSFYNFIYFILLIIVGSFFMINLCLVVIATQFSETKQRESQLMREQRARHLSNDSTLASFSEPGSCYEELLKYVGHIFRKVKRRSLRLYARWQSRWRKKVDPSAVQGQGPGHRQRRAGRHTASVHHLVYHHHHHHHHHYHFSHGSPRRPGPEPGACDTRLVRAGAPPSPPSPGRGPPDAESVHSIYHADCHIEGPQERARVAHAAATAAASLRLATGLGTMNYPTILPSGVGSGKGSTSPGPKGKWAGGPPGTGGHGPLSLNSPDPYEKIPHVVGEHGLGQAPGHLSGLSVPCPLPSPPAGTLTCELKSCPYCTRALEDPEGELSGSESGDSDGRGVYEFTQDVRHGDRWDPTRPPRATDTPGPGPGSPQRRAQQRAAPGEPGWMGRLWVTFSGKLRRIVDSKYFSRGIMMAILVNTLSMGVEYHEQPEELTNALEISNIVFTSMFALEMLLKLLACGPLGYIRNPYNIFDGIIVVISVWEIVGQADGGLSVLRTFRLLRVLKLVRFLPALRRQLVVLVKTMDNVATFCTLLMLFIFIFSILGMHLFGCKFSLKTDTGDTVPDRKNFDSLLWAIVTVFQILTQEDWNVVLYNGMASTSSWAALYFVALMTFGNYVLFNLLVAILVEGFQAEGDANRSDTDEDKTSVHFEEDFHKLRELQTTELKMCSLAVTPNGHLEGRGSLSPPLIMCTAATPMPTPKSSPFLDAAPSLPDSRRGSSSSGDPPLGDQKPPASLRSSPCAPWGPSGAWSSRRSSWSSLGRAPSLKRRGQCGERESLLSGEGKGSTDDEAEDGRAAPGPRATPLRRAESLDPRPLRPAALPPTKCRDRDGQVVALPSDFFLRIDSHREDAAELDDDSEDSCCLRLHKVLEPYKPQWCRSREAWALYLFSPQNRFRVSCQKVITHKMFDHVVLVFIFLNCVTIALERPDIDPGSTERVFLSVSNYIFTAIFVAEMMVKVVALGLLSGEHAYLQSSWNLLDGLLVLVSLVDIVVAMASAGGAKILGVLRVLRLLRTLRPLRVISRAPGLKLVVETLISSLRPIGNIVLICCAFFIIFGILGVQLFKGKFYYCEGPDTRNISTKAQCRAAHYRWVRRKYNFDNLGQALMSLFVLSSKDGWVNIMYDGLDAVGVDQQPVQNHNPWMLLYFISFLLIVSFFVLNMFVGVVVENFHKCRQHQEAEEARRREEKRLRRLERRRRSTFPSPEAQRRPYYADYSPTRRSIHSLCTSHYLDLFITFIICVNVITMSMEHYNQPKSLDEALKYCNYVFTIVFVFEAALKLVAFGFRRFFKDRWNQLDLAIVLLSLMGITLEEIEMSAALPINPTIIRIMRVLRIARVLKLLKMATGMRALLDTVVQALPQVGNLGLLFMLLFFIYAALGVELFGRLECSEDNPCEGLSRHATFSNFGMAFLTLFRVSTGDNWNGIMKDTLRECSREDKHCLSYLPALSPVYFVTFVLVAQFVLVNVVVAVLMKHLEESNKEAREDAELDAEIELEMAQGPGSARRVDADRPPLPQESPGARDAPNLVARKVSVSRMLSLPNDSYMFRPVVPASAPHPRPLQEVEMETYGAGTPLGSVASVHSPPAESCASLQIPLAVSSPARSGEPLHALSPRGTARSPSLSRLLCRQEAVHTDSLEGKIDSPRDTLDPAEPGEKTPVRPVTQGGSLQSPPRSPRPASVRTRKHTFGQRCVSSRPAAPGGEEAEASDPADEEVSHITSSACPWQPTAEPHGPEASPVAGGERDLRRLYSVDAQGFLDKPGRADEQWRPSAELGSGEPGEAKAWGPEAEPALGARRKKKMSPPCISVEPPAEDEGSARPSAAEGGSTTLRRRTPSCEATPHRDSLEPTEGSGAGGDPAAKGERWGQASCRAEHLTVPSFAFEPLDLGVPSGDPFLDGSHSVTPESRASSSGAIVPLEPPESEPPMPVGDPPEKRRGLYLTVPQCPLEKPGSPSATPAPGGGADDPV

Fatty acid synthase [12] = molecular target: T6, Fatty acid synthase (Homo sapiens, UniProt P49327); experiment: FAS thioesterase domain inhibitors, dose response, biochemical, kinetic fluorescence intensity (AID 624326); type: functional;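 note: rate of fluorescence rise from hydrolysis of a fluorogenic O-methyl fluorescein ester substrate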
T6 sequence (P49327 whole entry, the tested form may be a part): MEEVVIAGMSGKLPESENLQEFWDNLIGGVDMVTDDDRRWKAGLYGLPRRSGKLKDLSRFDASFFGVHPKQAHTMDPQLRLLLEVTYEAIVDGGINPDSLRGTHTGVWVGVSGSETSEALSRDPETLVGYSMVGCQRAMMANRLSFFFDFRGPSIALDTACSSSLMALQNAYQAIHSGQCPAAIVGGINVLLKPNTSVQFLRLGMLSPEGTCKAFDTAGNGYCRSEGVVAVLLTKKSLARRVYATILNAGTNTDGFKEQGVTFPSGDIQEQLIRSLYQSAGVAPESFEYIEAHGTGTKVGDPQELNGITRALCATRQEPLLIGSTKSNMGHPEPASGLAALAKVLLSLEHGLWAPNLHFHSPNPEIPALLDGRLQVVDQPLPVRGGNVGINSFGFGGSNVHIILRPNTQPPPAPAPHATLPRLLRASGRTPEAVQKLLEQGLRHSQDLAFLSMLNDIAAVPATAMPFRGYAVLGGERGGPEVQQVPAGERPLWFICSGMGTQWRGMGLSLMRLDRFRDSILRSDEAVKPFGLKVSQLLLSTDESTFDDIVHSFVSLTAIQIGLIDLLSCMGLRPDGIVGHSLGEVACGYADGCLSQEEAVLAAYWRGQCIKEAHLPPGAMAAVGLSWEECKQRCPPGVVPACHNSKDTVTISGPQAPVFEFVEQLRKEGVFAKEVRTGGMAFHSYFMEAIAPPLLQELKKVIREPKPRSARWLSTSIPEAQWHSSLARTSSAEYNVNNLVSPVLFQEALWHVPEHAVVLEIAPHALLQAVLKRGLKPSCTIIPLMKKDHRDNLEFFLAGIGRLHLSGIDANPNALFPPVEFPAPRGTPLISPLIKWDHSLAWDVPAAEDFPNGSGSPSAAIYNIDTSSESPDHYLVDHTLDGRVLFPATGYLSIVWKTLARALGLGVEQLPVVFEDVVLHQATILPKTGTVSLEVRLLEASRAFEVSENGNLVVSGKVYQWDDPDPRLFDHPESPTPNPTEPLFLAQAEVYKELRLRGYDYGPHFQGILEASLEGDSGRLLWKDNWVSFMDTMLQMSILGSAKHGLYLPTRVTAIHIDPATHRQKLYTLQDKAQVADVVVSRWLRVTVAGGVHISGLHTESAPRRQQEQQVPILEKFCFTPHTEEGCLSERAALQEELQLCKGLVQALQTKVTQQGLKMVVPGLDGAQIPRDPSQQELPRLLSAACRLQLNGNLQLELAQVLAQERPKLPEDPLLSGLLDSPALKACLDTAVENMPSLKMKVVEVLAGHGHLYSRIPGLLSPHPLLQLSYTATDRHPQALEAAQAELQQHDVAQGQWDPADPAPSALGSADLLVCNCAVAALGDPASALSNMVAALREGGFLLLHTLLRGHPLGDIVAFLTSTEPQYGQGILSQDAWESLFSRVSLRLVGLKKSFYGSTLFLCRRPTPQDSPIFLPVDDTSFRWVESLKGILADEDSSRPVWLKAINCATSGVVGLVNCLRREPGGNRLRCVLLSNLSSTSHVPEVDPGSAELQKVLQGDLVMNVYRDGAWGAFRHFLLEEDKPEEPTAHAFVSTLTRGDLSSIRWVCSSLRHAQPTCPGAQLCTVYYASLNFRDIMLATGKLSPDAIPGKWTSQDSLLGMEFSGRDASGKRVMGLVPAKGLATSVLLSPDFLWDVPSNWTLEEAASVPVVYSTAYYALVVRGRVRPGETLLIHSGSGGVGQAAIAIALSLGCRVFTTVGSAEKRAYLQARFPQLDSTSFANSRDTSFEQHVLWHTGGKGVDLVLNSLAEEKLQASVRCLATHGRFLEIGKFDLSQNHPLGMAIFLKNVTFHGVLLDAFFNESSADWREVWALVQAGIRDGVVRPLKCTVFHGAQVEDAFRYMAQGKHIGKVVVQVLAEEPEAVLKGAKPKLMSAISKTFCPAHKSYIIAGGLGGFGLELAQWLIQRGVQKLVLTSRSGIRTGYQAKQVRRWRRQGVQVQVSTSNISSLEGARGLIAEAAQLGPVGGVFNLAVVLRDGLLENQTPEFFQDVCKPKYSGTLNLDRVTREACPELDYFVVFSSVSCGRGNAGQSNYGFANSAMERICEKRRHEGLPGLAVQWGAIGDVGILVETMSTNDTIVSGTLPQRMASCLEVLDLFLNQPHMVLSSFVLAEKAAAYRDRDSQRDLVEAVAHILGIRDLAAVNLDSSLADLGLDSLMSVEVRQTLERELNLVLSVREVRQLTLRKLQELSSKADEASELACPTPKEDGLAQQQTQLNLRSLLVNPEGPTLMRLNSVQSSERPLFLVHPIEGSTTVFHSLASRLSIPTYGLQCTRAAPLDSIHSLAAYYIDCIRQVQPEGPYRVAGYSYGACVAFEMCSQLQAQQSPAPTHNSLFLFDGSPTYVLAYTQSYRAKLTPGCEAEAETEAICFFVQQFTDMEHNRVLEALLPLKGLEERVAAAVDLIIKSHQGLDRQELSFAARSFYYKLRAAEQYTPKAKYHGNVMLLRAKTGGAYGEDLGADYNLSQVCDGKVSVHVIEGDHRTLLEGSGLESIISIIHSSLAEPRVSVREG

Fatty acid synthase [13] = molecular target: T6, Fatty acid synthase; experiment: FAS thioesterase domain inhibitors, dose response, biochemical, endpoint fluorescence intensity, uHTS hits (AID 624327); type: functional;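 note: fluorescence from hydrolysis of an O-methyl fluorescein acyl ester substrate by the enzyme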

Sequence of Phospholipase A2 (P04054 whole entry): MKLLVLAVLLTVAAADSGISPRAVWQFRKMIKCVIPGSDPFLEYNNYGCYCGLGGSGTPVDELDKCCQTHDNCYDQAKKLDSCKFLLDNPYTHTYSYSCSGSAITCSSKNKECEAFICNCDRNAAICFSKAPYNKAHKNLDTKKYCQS

IC50 (Phospholipase A2): 13.1 µM (active)
IC50 (Cysteine protease ATG4B): 21.1 µM (inactive)
Compound: CC1(C)Cc2c(sc(NC(=S)NC(=O)c3ccccc3)c2C(=O)O)CO1

Compound: COc1ccc(C(O)(C2CCCCC2)C(CN2CCOCC2)c2ccccc2)cc1 (stereo unspecified)
AC50 [1]: 5.2 µM (active)
AC50 [2]: 11.1 µM (active)
AC50 [3]: 1.09 µM (active)
AC50 [4]: 7.26 µM (active)

Compound: O=C(O)C1C2C=CC(C2)C1C(=O)NCc1cccs1 (stereo unspecified)
EC50 [5]: > 112 µM (not active)
AC50 (Caspase-6): 14.8 µM (active)
EC50 [6]: > 112 µM (not active)

IC50 [7]: 50.3 µM (active)
Compound: CCN(CC)c1ccc(Nc2nc(Cl)ncc2Br)cc1
CC50 [8]: 100 µM (active)

IC50 (Phospholipase A2): 66.5 µM (inactive)
EC50 [9]: > 104 µM (inactive)
IC50 (Cysteine protease ATG4B): 16.2 µM (active)
Compound: CC(C)COC(=O)c1ccc(N2C(=O)c3ccccc3C2=O)cc1

IC50 [10]: 9.27 µM (active)
Compound: Cc1cc(N2CCN(c3nc(-c4ccccc4)cs3)CC2)c2ccccc2n1

IC50 [10]: 73.8 µM (inactive)
Compound: CCn1cc(C(=O)O)c(=O)c2cc(F)c(N3CCN(C(=S)Nc4ccc(OC)cc4)CC3)cc21

EC50 [11]: 4.77 µM (active)
IC50 (Phospholipase A2): 11.6 µM (active)
IC50 (Cysteine protease ATG4B): 16.4 µM (active)
Compound: CC(C)Oc1ccc(C(CC(=O)NCc2ccco2)c2ccccc2)cc1 (stereo unspecified)

IC50 (Fatty acid synthase [12]): 1.68 µM (active)
IC50 (Fatty acid synthase [13]): 3.84 µM (active)
Compound: O=C(COC(=O)c1cc([N+](=O)[O-])ccc1NCCO)NCc1cccs1
